In patent US6677362B1, “Solid pharmaceutical dispersions” (Warner-Lambert Company, priority 1991, dated 2004):

What was measured:
[1] = in vivo bioavailability studies involving animal models; details: administered in its original crystalline form
[2] = solubility of the drug in water / aqueous media; type: physicochemical

- bioavailability [1]: poor bioavailability
- change of solubility with pH ([2]; as the pH of the aqueous media increases): slightly increases
- solubility in water ([2]; water): practically insoluble
Compound: Cc1c(C)c2c(c(C)c1O)CCC(C)(COc1ccc(CC3SC(=O)NC3=O)cc1)O2 (single isomer, unassigned; (+)) [Romglizone, (+)-5-[4-(6-hydroxy-2,5,7,8-tetramethylchroman-2-ylmethoxy)-benzyl]-2,4-thiazolidinedione]
